Experimental data as given in patent US20250188103A1, “HETEROCYCLIC GLP-1 AGONISTS” (Gasherbrum Bio, Inc., priority 2022, published 2025).

Molecular target: T1, GLP-1 Receptor (Homo sapiens, UniProt P43220)
T1 construct: HD Biosciences / HDB (Method 3); host or cells: CHO-K1 (Methods 1, 2) or HEK293/CRE-Luc (Method 3)
Test: GLP-1R agonist cAMP stimulation assay
Type: cell-based
Conditions: cells stably expressing the GLP-1 Receptor (method not given)
Procedure: Activation of GLP-1 receptor is known to stimulate cyclic AMP (cAMP) production in cells which indicates primary coupling to the Gas subunit of the G protein heterotrimeric complex.
Method 1: To optimize functional activity directed toward Gas coupling, a CHO-K1 cell line developed by DiscoverX stably expressing the GLP-1 Receptor is used. Cells expressing GLP-1 receptor are plated in a 384-well microtiter plates and incubated overnight at 37° C. with 5% CO2 to allow the cells to attach and grow. Media is then aspirated from the cells and replaced with 15 μL Hanks Balanced Salt Solution (HBSS)/5 mM Hepes:0.5 mM IBMX 0.1% BSA (pH 7.4) [Stimulation Buffer]. […] previously generated compound sample stocks at 4× final concentration in Stimulation Buffer are then added to the cells and allowed to incubate at 37° C. for 30 or 60 minutes.
After incubation the assay signal is generated using a europium chelate-labeled cAMP tracer which competes with cAMP for binding sites on a cAMP-specific monoclonal antibody labeled with ULight™ dye. When antibodies are bound to the Eu-labeled cAMP tracer FRET transfer between the Eu chelate and ULight™ labeled antibodies is detected. Free cAMP produced from stimulated cells competes with the Eu-cAMP tracer for binding to the ULight™-mAb causing a decrease in the TR-FRET signal in a dose dependent manner.
The method for detection of cAMP using the Eu-chelate technology requires incubation with Eu-cAMP tracer solution+ULight™-anti-cAMP solution for one hour at room temperature. Microplates are read following signal generation with a PerkinElmer Envision instrument utilizing TR-FRET signal detection. Percentage activity is calculated using the following formula: […]
Method 2: To optimize functional activity directed toward Gas coupling, a CHO-K1 cell line developed by DiscoverX stably expressing the GLP-1 Receptor is used. Cells expressing GLP-1 receptor are plated in a 384-well microtiter plates and incubated overnight at 37° C. with 5% CO2 to allow the cells to attach and grow. Media is then aspirated from the cells and replaced with 15 μL 2:1 Hanks Balanced Salt Solution (HBSS)/10 mM Hepes: cAMP XS+Ab reagent. Five microliters (5 μL) of previously generated compound sample stocks at 4× final concentration in assay buffer are then added to the cells and allowed to incubate at 37° C. for 30 or 60 minutes.
After incubation the assay signal is generated using enzyme fragment complementation (EFC). In EFC, the enzyme B-galactosidase is split into two complementary portions (EA and ED). The fragment ED is fused to cAMP and in the assay format competes with endogenous cAMP for binding to a cAMP specific antibody. Activated B-Gal is formed when exogenous EA fragment binds to free ED-cAMP (not bound to cAMP specific antibody). Activated enzyme levels are detected through conversion of B-gal chemiluminescent substrate which generates a detectable luminescence signal and read on standard microtiter plate.
The methodology for detection of cAMP using EFC requires incubation with 20 μL of cAMP XS+ED/CL lysis cocktail for one hour followed by incubation with 20 μL cAMP XS+EA reagent for three hours at room temperature. Microplates are read following signal generation with a PerkinElmer Envision instrument utilizing chemiluminescent signal detection. Compound activity is analyzed using CBIS data analysis suite (ChemInnovation, CA). Percentage activity is calculated using the following formula: […]
Method 3: Activation of GLP-1 receptor is known to stimulate cyclic AMP (cAMP) production in cells which indicates primary coupling to the Gas subunit of the G protein heterotrimeric complex.
To optimize functional activity directed toward Gas coupling, a HEK293/CRE-Luc cell line developed by HDB stably expressing the GLP-1 Receptor was used. […]

T1 sequence (P43220 24-463): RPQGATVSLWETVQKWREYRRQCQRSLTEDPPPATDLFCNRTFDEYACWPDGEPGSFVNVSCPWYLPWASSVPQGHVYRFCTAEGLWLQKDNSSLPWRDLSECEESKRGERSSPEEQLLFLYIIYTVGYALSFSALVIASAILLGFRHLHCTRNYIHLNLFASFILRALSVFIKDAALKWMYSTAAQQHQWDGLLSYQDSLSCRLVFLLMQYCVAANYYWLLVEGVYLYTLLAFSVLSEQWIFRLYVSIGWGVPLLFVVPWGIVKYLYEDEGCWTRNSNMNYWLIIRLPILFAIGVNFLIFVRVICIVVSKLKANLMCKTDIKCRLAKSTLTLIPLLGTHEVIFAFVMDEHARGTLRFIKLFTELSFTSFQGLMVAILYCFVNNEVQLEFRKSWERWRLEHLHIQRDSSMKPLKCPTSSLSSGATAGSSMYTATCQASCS

SMILES	EC50 [nM]
CCP(=O)(CC)c1ccc(-n2ccn(-c3c4c(nn3-c3cc(C)c(F)c(C)c3)CCN(C(=O)c3oc5cc(C6CCOCC6)ccc5c3C3(c5noc(=O)[nH]5)CC3)[C@H]4C)c2=O)cc1NC [Compound 19, 3-(1-{2-[(4S)-3-{3-[4-(diethylphosphoryl)-3-(methylamino)phenyl]-2-oxo-2,3-dihydro-1H-imidazol-1-yl}-2-(4-fluoro-3,5-dimethylphenyl)-4-methyl-2H,4H,5H,6H,7H-pyrazolo[4,3-c]pyridine-5-carbonyl]-6-(oxan-4-yl)-1-benzofuran-3-yl}cyclopropyl)-4,5-dihydro-1,2,4-oxadiazol-5-one]	0.049
CCP(=O)(CC)c1ccc(-n2ccn(-c3c4c(nn3-c3cc(C)c(F)c(C)c3)CCN(C(=O)c3sc5cc(C6CCOCC6)ccc5c3C3(c5noc(=O)[nH]5)CC3)[C@H]4C)c2=O)cc1NC [Compound 18, 3-(1-{2-[(4S)-3-{3-[4-(diethylphosphoryl)-3-(methylamino)phenyl]-2-oxo-2,3-dihydro-1H-imidazol-1-yl}-2-(4-fluoro-3,5-dimethylphenyl)-4-methyl-2H,4H,5H,6H,7H-pyrazolo[4,3-c]pyridine-5-carbonyl]-6-(oxan-4-yl)-1-benzothiophen-3-yl}cyclopropyl)-4,5-dihydro-1,2,4-oxadiazol-5-one]	0.061
[2H]C([2H])([2H])Nc1cc(-n2ccn(-c3c4c(nn3-c3ccc(F)c(C5CC5)c3)CCN(C(=O)c3cc5cc(C6CCOCC6)ccn5c3C3(c5noc(=O)[nH]5)CC3)[C@H]4C)c2=O)ccc1P(C)(C)=O [Compound 6]	0.089
CCP(=O)(CC)c1ccc(-n2ccn(-c3c4c(nn3-c3ccc(F)c(C5CC5)c3)CCN(C(=O)c3cc5cc(C6CCOCC6)ccn5c3C3(c5noc(=O)[nH]5)CC3)[C@H]4C)c2=O)cc1NC [Compound 5]	0.11
CCP(=O)(CC)c1ccc(-n2ccn(-c3c4c(nn3-c3cc(C)c(F)c(C)c3)CCN(C(=O)c3cn5cc(C6CCOCC6)ccc5c3C3(c5noc(=O)[nH]5)CC3)[C@H]4C)c2=O)cc1NC [Compound 20, 3-(1-{2-[(4S)-3-{3-[4-(diethylphosphoryl)-3-(methylamino)phenyl]-2-oxo-2,3-dihydro-1H-imidazol-1-yl}-2-(4-fluoro-3,5-dimethylphenyl)-4-methyl-2H,4H,5H,6H,7H-pyrazolo[4,3-c]pyridine-5-carbonyl]-6-(oxan-4-yl)indolizin-1-yl}cyclopropyl)-4,5-dihydro-1,2,4-oxadiazol-5-one]	0.03
CNc1cc(-n2ccn(-c3c4c(nn3-c3ccc(F)c(C5CC5)c3)CCN(C(=O)c3cc5cc(C6CCOCC6)ccn5c3C3(c5noc(=O)[nH]5)CC3)[C@H]4C)c2=O)ccc1P(C)(C)=O [Compound 4]	0.085
CNc1cc(-n2ccn(-c3c4c(nn3-c3cc(C)c(F)c(C)c3)CCN(C(=O)c3cc5cc(C6CCOCC6)ccn5c3C3(c5noc(=O)[nH]5)CC3)[C@H]4C)c2=O)ccc1P(C)(C)=O [Compound 3]	0.07

Further lines, results first:

EC50 [nM]	SMILES
0.033	CCP(=O)(CC)c1ccc(-n2ccn(-c3c4c(nn3-c3cc(C)c(F)c(C)c3)CCN(C(=O)c3[nH]c5cc(C6CCOCC6)ccc5c3C3(c5noc(=O)[nH]5)CC3)[C@H]4C)c2=O)cc1NC [Compound 28, 3-(1-{2-[(4S)-3-{3-[4-(diethylphosphoryl)-3-(methylamino)phenyl]-2-oxo-2,3-dihydro-1H-imidazol-1-yl}-2-(4-fluoro-3,5-dimethylphenyl)-4-methyl-2H,4H,5H,6H,7H-pyrazolo[4,3-c]pyridine-5-carbonyl]-6-(oxan-4-yl)-1H-indol-3-yl}cyclopropyl)-2,5-dihydro-1,2,4-oxadiazol-5-one]
0.014	CCP(=O)(CC)c1ccc(-n2ccn(-c3c4c(nn3-c3cc(C)c(F)c(C)c3)CCN(C(=O)c3cc5cc(C6CCOCC6)cnn5c3C3(c5noc(=O)[nH]5)CC3)[C@H]4C)c2=O)cc1NC [Compound 26, 3-(1-{6-[(4S)-3-{3-[4-(diethylphosphoryl)-3-(methylamino)phenyl]-2-oxo-2,3-dihydro-1H-imidazol-1-yl}-2-(4-fluoro-3,5-dimethylphenyl)-4-methyl-2H,4H,5H,6H,7H-pyrazolo[4,3-c]pyridine-5-carbonyl]-3-(oxan-4-yl)pyrrolo[1,2-b]pyridazin-7-yl}cyclopropyl)-4,5-dihydro-1,2,4-oxadiazol-5-one]
0.02	CCP(=O)(CC)c1ccc(-n2ccn(-c3c4c(nn3-c3cc(C)c(F)c(C)c3)CCN(C(=O)c3cc5cc(C6CCOCC6)ccn5c3C3(c5noc(=O)[nH]5)CC3)[C@H]4C)c2=O)cc1NC [Compound 21, 3-(1-{2-[(4S)-3-{3-[4-(diethylphosphoryl)-3-(methylamino)phenyl]-2-oxo-2,3-dihydro-1H-imidazol-1-yl}-2-(4-fluoro-3,5-dimethylphenyl)-4-methyl-2H,4H,5H,6H,7H-pyrazolo[4,3-c]pyridine-5-carbonyl]-7-(oxan-4-yl)indolizin-3-yl}cyclopropyl)-4,5-dihydro-1,2,4-oxadiazol-5-one]
29	CCP(=O)(CC)c1ccc(-n2ccn(-c3c(-c4cc(C)c(F)c(C)c4)nn4c3C(C)N(C(=O)c3nc5cc(C6CCOCC6)ccn5c3C3(c5noc(=O)[nH]5)CC3)CC4)c2=O)cc1NC (stereo not shown) [Compound 29]
0.18	CCP(=O)(CC)c1ccc(-n2ccn(-c3c4c(nn3-c3cc(C)c(F)c(C)c3)CCN(C(=O)c3nn5cc(C6CCOCC6)cnc5c3C3(c5noc(=O)[nH]5)CC3)[C@H]4C)c2=O)cc1NC [Compound 24]
0.32	CCP(=O)(CC)c1ccc(-n2ccn(-c3c(-c4cc(C)c(F)c(C)c4)nn4c3C(C)N(C(=O)c3sc5cc(C6CCOCC6)ccc5c3C3(c5noc(=O)[nH]5)CC3)CC4)c2=O)cc1NC (stereo not shown) [Compound 30]
